Results from patent US10947237B2, “Antimicrobial compounds and methods of making and using the same” (BIOVERSYS AG, priority 2015, dated 2021).

Columns and labels:
[1] = tested on: Eschericia coli (E. Coli) strain ATCC25922; assay: standard microdilution assay, minimum inhibitory concentration (MIC); assay type: cell-based; settings: Escherichia coli; Table 2; strain ATCC25922
Method: (§1) The in vitro activity of the compounds of the present disclosure can be determined. Antimicrobial testing is typically performed to determine the minimum inhibitory concentration (MIC). Minimum inhibitory concentrations (MICs) are determined by the microdilution method in a final volume of 100 μl according to protocols outlined by The Clinical and Laboratory Standards Institute (CLSI). Performance standards for reference strains are assessed within the same experimental design to maintain quality control. See, for example, Clinical Laboratory Standards Institute: Methods for dilution antimicrobial susceptibility tests for bacteria that grow aerobically M7-A8. Approved Standard-Eighth Edition. Wayne, Pa.: CLSI; December 2008; and Clinical Laboratory Standards Institute: Performance Standards for Antimicrobial Susceptibility Testing M100-S20; Approved Standard-Twentieth Edition. Wayne, Pa.: CLSI; June 2010. The compounds of the present disclosure were tested for antimicrobial activity. The Compounds 1-149 were run against Eschericia coli (E. Coli) strain ATCC25922 and against Staphylococcus aureus (S. aureus) 11540 strain using a standard microdilution assay to determine minimum inhibitory concentrations (MICs). […] It will be recognized by one skilled in the art that the compounds can be assessed against other bacterial organisms and that the presentation of data for activity against Eschericia coli and Staphylococcus aureus are illustrative and in no way is intended to limit the scope of the present disclosure. The compounds of the present disclosure can be assayed against a range of other microorganisms depending upon the performance activity desired to be gathered. Furthermore, the “+” and “−” representation and the selection of a cutoff value of 16 micrograms/mL is also illustrative and in no way is intended to limit the scope of the present disclosure.

[2] = tested on: Staphylococcus aureus (S. aureus) 11540 strain; assay: as above; assay type: cell-based; settings: Table 2, 11540 strain
Method: as §1

Row | SMILES | MIC [1] [µg/mL] | MIC [2] [µg/mL]
1 | C[C@H](N)CCCc1cc(Cl)c(F)c(-c2cc3cn(-c4ccc(CN[C@H](CCNC(=N)N)CNc5nc6ccccc6[nH]5)cc4)c(=O)nc3[nH]2)c1 [Compound 37] | ≤ 16 | ≤ 16
2 | C[C@H](N)CCCc1cc(Cl)c(F)c(-c2cc3cn(-c4ccc(CN[C@H](CCNC(=N)N)CNc5ncns5)cc4)c(=O)nc3[nH]2)c1 [Compound 38] | ≤ 16 | ≤ 16
3 | COc1ccc(NC[C@@H](CCNC(=N)N)NCc2ccc(-n3cc4cc(-c5cc(CCC[C@H](C)N)cc(Cl)c5F)[nH]c4nc3=O)cc2)nn1 [Compound 39] | ≤ 16 | ≤ 16
4 | C[C@H](N)CCCc1cc(Cl)c(F)c(-c2cc3cn(-c4ccc(CN[C@H](CCNC(=N)N)CNc5ccc(=O)[nH]n5)cc4)c(=O)nc3[nH]2)c1 [Compound 40] | ≤ 16 | ≤ 16
5 | Cc1nc(NCC[C@H]2CCC[C@H](c3ccc(-n4cc5cc(-c6cc(CCC[C@H](C)N)cc(Cl)c6F)[nH]c5nc4=O)cc3)N2)[nH]c1C [Compound 41] | ≤ 16 | ≤ 16
6 | Cc1nc(NCC[C@@H]2CCC[C@@H](c3ccc(-n4cc5cc(-c6cc(CCC[C@H](C)N)cc(OC(F)(F)F)c6F)[nH]c5nc4=O)cc3)N2)[nH]c1C [Compound 42] | ≤ 16 | ≤ 16
7 | C[C@H](N)CCCc1cc(Cl)c(F)c(-c2cc3cn(-c4ccc([C@@H]5CCC[C@@H](CCNc6nc7ccccc7[nH]6)N5)cc4)c(=O)nc3[nH]2)c1 [Compound 43] | ≤ 16 | ≤ 16
8 | C[C@H](N)CCCc1cc(Cl)c(F)c(-c2cc3cn(-c4ccc([C@H]5CCC[C@H](CCNc6nc7ccccc7[nH]6)N5)cc4)c(=O)nc3[nH]2)c1 [Compound 44] | ≤ 16 | ≤ 16
9 | C[C@H](N)CCCc1cc(Cl)c(F)c(-c2cc3cn(-c4ccc(CN[C@H](CCNC(=N)N)Cc5ncon5)cc4)c(=O)nc3[nH]2)c1 [Compound 45] | ≤ 16 | ≤ 16
10 | C[C@H](N)CCCc1cc(Cl)c(F)c(-c2cc3cn(-c4ccc(CN[C@H](CCNC(=N)N)CNc5cc(=O)cc[nH]5)cc4)c(=O)nc3[nH]2)c1 [Compound 46] | ≤ 16 | ≤ 16
11 | COc1ccnc(NC[C@@H](CCNC(=N)N)NCc2ccc(-n3cc4cc(-c5cc(CCC[C@H](C)N)cc(Cl)c5F)[nH]c4nc3=O)cc2)c1 [Compound 47] | ≤ 16 | ≤ 16
12 | C[C@H](N)CCCc1cc(Cl)c(F)c(-c2cc3cn(-c4ccc(CN[C@H](CCNC(=N)N)CNc5cnccn5)cc4)c(=O)nc3[nH]2)c1 [Compound 48] | ≤ 16 | ≤ 16
13 | C[C@H](N)CCCc1cc(Cl)c(F)c(-c2cc3cn(-c4ccc(CN[C@H](CCNC(=N)N)CNc5nnn[nH]5)cc4)c(=O)nc3[nH]2)c1 [Compound 49] | ≤ 16 | ≤ 16
14 | Cc1nc(NC[C@@H](CCNC(=N)N)NCc2ccc(-n3cc4cc(-c5cc(CCC[C@H](C)N)cc(Cl)c5F)[nH]c4nc3=O)cc2)sc1C [Compound 50] | ≤ 16 | ≤ 16
15 | Cc1nnc(NC[C@@H](CCNC(=N)N)NCc2ccc(-n3cc4cc(-c5cc(CCC[C@H](C)N)cc(Cl)c5F)[nH]c4nc3=O)cc2)o1 [Compound 51] | ≤ 16 | ≤ 16
16 | Cc1nc(NCC[C@H]2CCC[C@H](c3ccc(-n4cc5cc(-c6cc(CCC[C@H](C)N)cc(OC(F)(F)F)c6F)[nH]c5nc4=O)cc3)N2)[nH]c1C [Compound 53] | ≤ 16 | ≤ 16
17 | C[C@H](N)CCCc1cc(Cl)c(F)c(-c2cc3cn(-c4ccc(CN[C@H](CCNC(=N)N)CNc5cccnc5)cc4)c(=O)nc3[nH]2)c1 [Compound 54] | ≤ 16 | ≤ 16
18 | Cc1nnc(NC[C@@H](CCNC(=N)N)NCc2ccc(-n3cc4cc(-c5cc(CCC[C@H](C)N)cc(Cl)c5F)[nH]c4nc3=O)cc2)[nH]1 [Compound 55] | ≤ 16 | ≤ 16
19 | C[C@H](N)CCCc1cc(Cl)c(F)c(-c2cc3cn(-c4ccc(CN[C@H](CCNC(=N)N)CNc5nc6cnccc6o5)cc4)c(=O)nc3[nH]2)c1 [Compound 56] | ≤ 16 | ≤ 16
